# From patent publication US20020040052A1, “Method for neurite outgrowth” (priority 2000, published 2002)
# System: PC12 cells derived from adrenal medulla pheochromocytoma of rats
# Test: Neurite extension of PC12 cells: percentage of cells with extended neurites after culturing for 3 days
# Type: cell-based, rat
# Method: Next, PC12 cells derived from adrenal medulla pheochromocytoma of rats were seeded in a serum-free DMEM/F12 medium containing 5 μg/ml of transferrin, 5 μg/ml of insulin and 20 nM of progesterone (GIBCO Corp., hereinafter, referred to as “DMEM-TIP medium”) at 2.0×10^4 cells/well (flat-bottomed 24 well collagen coated plate, manufactured by IWAKI). Then, the cells were cultured overnight at 37° C. under 5% CO2. […]
# After culturing for 3 days, for each well of the plate, microscopic observation was conducted with respect to the cells at 200 times magnification. The percentage of the cells with extended neurites (cells that have neurites longer than their diameter) to the total of more than 200 cells was calculated.
SMILES,Ratio of the cells with extended neurites (10 μM in DMEM-TIP medium) [%],Relative value of the ratio of the cells with extended neurites to control (Com. Ex. 1) (10 μM in DMEM-TIP medium),Ratio of the cells with extended neurites (50 μM in DMEM-TIP medium) [%],Relative value of the ratio of the cells with extended neurites to control (Com. Ex. 1) (50 μM in DMEM-TIP medium),Ratio of the cells with extended neurites (100 μM in DMEM-TIP medium) [%],Relative value of the ratio of the cells with extended neurites to control (Com. Ex. 1) (100 μM in DMEM-TIP medium)
COc1ccc(-c2cc(=O)c3c(OC)c(OC)c(OC)c(OC)c3o2)cc1OC [nobiletin],8.7,2.5,16.6,4.7,42.8,12.2
COc1ccc(-c2cc(=O)c3c(OC)c(OC)c(OC)c(OC)c3o2)cc1 [tangeretin],4.8,1.4,,,12.2,3.5
